{"source": "paper PMC6692300", "about": "“Targeting HIBCH to reprogram valine metabolism for the treatment of colorectal cancer” (Cell Death & Disease, 2019)", "biological_target": "T1, GFP-HIBCH (3-hydroxyisobutyryl-CoA hydrolase) (Homo sapiens, UniProt Q6NVY1)", "T1 construct": "GFP fusion of HIBCH", "T1 sequence (Q6NVY1 1-386)": "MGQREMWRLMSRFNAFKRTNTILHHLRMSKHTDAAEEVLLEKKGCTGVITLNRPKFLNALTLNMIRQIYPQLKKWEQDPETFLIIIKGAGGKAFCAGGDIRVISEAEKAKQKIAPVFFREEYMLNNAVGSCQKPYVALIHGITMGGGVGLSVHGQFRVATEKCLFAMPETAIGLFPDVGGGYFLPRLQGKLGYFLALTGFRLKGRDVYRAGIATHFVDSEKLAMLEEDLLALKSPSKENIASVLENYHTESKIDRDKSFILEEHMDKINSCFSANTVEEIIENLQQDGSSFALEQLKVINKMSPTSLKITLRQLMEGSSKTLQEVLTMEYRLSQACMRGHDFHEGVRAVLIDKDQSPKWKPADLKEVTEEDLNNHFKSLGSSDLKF", "assay": "microscale thermophoresis", "format": "binding", "details": "GFP-tagged HIBCH; fit of three independent measurements"}
{"molecule": "CCCCCCCCCCCCOC(=O)[C@@H](C)[C@@]1(O)[C@@H](O[C@@H]2OC[C@H](O)[C@H](O[C@@H]3OC[C@@H](O)[C@H](O)[C@H]3OC(=O)c3ccc(OC)cc3)[C@H]2OC(C)=O)C[C@H]2[C@@H]3CC=C4C[C@@H](O)CC[C@]4(C)[C@H]3CC[C@@]21C", "note": "[SBF-1]", "values": [{"measurement": "Kd", "result": 35.9, "unit": "µM"}]}
